Results from patent US12281125B2, “Rapamycin derivatives” (NOVARTIS AG, priority 2018, dated 2025).

How the values were obtained:
[1] = biological target: T1, FKBP51 (Homo sapiens, UniProt Q13451); experiment: SPR assay, binding affinity to FKBP51; conditions: equilibrium dissociation constant
T1 construct: made in house; host or cells: E. coli
T1 sequence (Q13451 1-457): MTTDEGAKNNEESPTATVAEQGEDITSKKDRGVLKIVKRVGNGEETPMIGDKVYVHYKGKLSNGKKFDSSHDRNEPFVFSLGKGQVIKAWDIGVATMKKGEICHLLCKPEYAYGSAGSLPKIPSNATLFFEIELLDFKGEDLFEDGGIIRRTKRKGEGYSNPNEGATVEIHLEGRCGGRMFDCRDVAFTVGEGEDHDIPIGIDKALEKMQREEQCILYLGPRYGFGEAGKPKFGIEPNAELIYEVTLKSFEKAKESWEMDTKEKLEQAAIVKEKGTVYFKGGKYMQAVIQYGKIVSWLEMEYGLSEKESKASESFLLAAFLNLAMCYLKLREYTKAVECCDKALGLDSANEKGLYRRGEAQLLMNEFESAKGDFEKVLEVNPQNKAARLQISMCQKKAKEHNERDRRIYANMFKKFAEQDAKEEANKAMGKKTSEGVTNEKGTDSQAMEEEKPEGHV
Text: N-terminal avi-his6-tagged FKBP fusion proteins were expressed in E. coli and purified with nickel chromatography using standard procedures. Biotinylated his-avi-FKBPs were immobilized on a streptavidin chip using a Biacore 8K (GE Healthcare). […] The single-cycle kinetics data were fit to a 1:1 binding model to measure the association rate ka (1/Ms), the dissociation rate kd (1/s) and the affinity KD (M). […] The single-cycle kinetics data was fit to a 1:1 binding model to measure the association rate ka (1/Ms), the dissociation rate kd (1/s) and the apparent affinity KD (M) for ternary complex formation. The equilibrium dissociation constants (KD) to FKBP12, FKBP51, and FKBP52 are shown below in Table 6.

[2] = test system: mTORC1 activity, S6K1 (Thr389) in FKBP12/12.6/25/52/51 knock-out 293T cells; experiment: S6K1(Thr389) phosphorylation ELISA in FKBP12/12.6/25/52/51 knock-out 293T cells; format: cell-based
Text: (§1) A CRISPR/Cas9 system was used to deliver ribonucleoprotein complexes containing guide RNA (gRNA) sequences that target FKBP12
(§2) ([…], location 35620248) into 293T cells, using the Amaxa® 4D-Nucleofector™ X Kit (Lonza, V4XC-2032). Cell clones were screened by immunoblotting with anti-FKBP-specific antibodies: FKBP12 (Novus, NB300-508), FKBP12.6 (Abnova, H00002281-M01), FKBP13 (R&D Systems, MAB4356), FKBP25 (R&D Systems, MAB3955), FKBP52 (Cell signaling Technology, #11826) and FKBP51 (Cell signaling Technology, #12210). […] Quintuple FKBP12/12.6/13/52/51 knock-out and FKBP12/12.6/25/52/51 knock-out cells were generated by sequentially knocking out five FKBP genes.
(§3) WT, FKBP12 knock-out, FKBP12/12.6/13/52/51 knock-out or FKBP12/12.6/25/52/51 knock-out 293T cells were plated at a density of 30,000 cells per well in poly-D-Lysine coated 96-well plates (Corning, #354461) in Dulbecco's modified Eagle's medium (ThermoFisher, #11995-065) supplemented with 10% fetal bovine serum (ThermoFisher, #16140-071). Cells were incubated at 37° C., 5% CO2 for 48 hours until they reached ˜80% confluence. […] Media supplemented with blank Dimethyl sulfoxide (DMSO) was used as a control for both compounds. Phosphorylated amounts of S6K1 (Thr389) were detected by a sandwich ELISA kit (Cell signaling, #7063C) following the manufacture's protocol.

[3] = test system: mTORC1 activity, S6K1 (Thr389) in FKBP12 knock-out 293T cells; experiment: S6K1(Thr389) phosphorylation ELISA in FKBP12 knock-out 293T cells; format: cell-based; conditions: 2 hours
Text: as §1, §2, §3

[4] = biological target: T2, FKBP12.6-rapalog-mTOR (amino acids 2019-2112) ternary complex (Homo sapiens, UniProt P42345+P68106); experiment: SPR ternary complex formation, rapalog bound to FKBP12.6 with mTOR; format: binding; conditions: rapalog bound to FKBP with mTOR, read-out: FKBP12.6 apparent affinity KD for ternary complex formation
T2 construct: his^6-mTOR (amino acids 2019-2112) was diluted in buffer; made in house; host or cells: E. coli
T2 sequence (P68106 whole entry, the tested form may be a part): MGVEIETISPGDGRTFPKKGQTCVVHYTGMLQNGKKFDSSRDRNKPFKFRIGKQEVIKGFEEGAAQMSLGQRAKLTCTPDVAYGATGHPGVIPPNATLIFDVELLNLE
T2 sequence (P42345 2019-2112 limits assumed): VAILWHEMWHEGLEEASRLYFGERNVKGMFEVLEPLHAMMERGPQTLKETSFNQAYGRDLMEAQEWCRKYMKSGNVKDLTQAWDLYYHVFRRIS
Method: N-terminal avi-his6-tagged FKBP fusion proteins were expressed in E. coli and purified with nickel chromatography using standard procedures. Biotinylated his-avi-FKBPs were immobilized on a streptavidin chip using a Biacore 8K (GE Healthcare). To determine the kinetics-affinity of the rapalogs for FKBPs, rapalogs were diluted in DMSO to 50× working concentration. Next, 3.1 uLs of each rapalog solution was added to 150 uLs of buffer (50 mM Tris pH 7.5/150 mM NaCl/0.01% Tween 20/1 mM DTT) in a 384 deep well plate (greiner bio-one/78127) and mixed using a Biomek FX. The rapalog solution gradients (6 concentrations/2 fold dilutions, 3.1-100 nM or 31-1000 nM or 310-10000 nM) were then injected at 45 uL/min for 120 seconds: contact time and dissociation time was 1800 seconds in running buffer (50 mM Tris pH 7.5/150 mM NaCl/0.01% Tween 20/1 mM DTT/2% DMSO). The single-cycle kinetics data were fit to a 1:1 binding model to measure the association rate ka (1/Ms), the dissociation rate kd (1/s) and the affinity KD (M). […] 3.1 uLs of the 500 μM rapalog solutions were added to 150 uLs of the mTOR samples in a 384 deep well plate (greiner bio-one/78127) and mixed using a Biomek FX. The mTOR solution gradients were then injected at 45 uL/min for 120 seconds: contact time and dissociation time was 1800 seconds in running buffer (50 mM Tris pH 7.5/150 mM NaCl/0.01% Tween 20/1 mM DTT/2% DMSO). […]

| Kd [1] [nM] | Kd [4] [nM] | SMILES | inhibitory effect (potency) on S6K1 (Thr389), in words [2] | de-phosphorylation of S6K1(Thr389) [3] [%] |
| --- | --- | --- | --- | --- |
| 144 | 55 | CO[C@@H]1C[C@H](C[C@@H](C)[C@@H]2CC[C@H](C)/C=C(\C)[C@@H](O)[C@@H](OC)C(=O)[C@H](C)C[C@H](C)/C=C/C=C/C=C(\C)[C@@H](NS(C)(=O)=O)C[C@@H]3CC[C@@H](C)[C@@](O)(O3)C(=O)C(=O)N3CCCC[C@H]3C(=O)O2)CC[C@H]1O [Compound 2] | neither RAD001 nor Compound 2 were efficacious | ~70 |
| 811 | 47 | CO[C@H]1C[C@@H]2CC[C@@H](C)[C@@](O)(O2)C(=O)C(=O)N2CCCC[C@H]2C(=O)O[C@H]([C@H](C)C[C@@H]2CC[C@@H](OCCO)[C@H](OC)C2)CC(=O)[C@H](C)/C=C(\C)[C@@H](O)[C@@H](OC)C(=O)[C@H](C)C[C@H](C)/C=C/C=C/C=C/1C [RAD001, everolimus, reference compound] | neither RAD001 nor Compound 2 were efficacious | ~40 |
